Patent US11466003B2, “Nitrogenous heterocyclic aromatic compound, preparation method therefor, pharmaceutical composition thereof, and application thereof” (SHANGHAI YINGLI PHARMACEUTICAL CO., LTD, priority 2016, dated 2022)
pIC50: −log10 of the molar value.

These compounds were tested against ALK5 (Homo sapiens (Human), UniProt P36897) (assay: Evaluation of IC50 of inhibitory activity toward ALK5 enzyme (ADP-Glo kinase assay)). Conditions: 25 nM ALK5, 0.1 mg/mL peptide TGFbR1, 7 μM ATP, 30° C. 1 hour, ADP-Glo luminescence.
Assay type: biochemical
Description: 5. […] The value of the luminescence reading was converted to % inhibition by formula (% inhibition=(max−sample RLU)/(max−min)×100, wherein, “min” refers to control fluorescence reading of reaction of no enzyme; “max” refers to the fluorescence reading of the sample with DMSO added as a control. The data was imported into MS Excel and curve fitting was performed using GraphPad Prism. IC50 values was calculated.

Sequence of ALK5 (P36897 34-503, species assumed): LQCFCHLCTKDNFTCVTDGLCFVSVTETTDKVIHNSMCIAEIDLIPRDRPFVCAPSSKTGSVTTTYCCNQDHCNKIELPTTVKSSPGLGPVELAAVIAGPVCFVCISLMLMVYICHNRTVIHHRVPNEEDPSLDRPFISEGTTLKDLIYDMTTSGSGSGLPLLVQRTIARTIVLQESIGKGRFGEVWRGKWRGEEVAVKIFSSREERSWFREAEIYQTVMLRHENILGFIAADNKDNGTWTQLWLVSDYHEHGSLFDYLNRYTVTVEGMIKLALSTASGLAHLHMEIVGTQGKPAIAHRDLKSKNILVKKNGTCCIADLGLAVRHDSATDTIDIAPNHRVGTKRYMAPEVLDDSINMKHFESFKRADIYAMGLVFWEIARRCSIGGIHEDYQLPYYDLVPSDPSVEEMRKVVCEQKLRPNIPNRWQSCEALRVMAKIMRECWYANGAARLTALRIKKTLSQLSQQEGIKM

| SMILES | pIC50 |
| --- | --- |
| Cc1cccc(-c2ccccc2-c2ccc3ncc(C(=O)O)n3c2)n1 [Compound 1] | 6.72 |
| Cc1cccc(-c2ccccc2-c2ccc3ncc(C(N)=O)n3c2)n1 [Compound 2] | 7.78 |
| CNC(=O)c1cnc2ccc(-c3ccccc3-c3cccc(C)n3)cn12 [Compound 3] | 7.57 |
| Cc1cccc(-c2ccccc2-c2ccc3ncc(CN)n3c2)n1 [Compound 4] | 5.24 |
| Cc1cccc(-c2ccccc2-c2ccc3ncc(C(=O)N(C)C)n3c2)n1 [Compound 5] | 6.61 |
| Cc1cccc(-c2c(F)cccc2-c2ccc3ncc(C(N)=O)n3c2)n1 [Compound 6] | 7.09 |
| NC(=O)c1cnc2ccc(-c3ccccc3-c3ccccn3)cn12 [Compound 7] | 7.07 |
| Cc1cccc(-c2cccc(F)c2-c2ccc3ncc(C(N)=O)n3c2)n1 [Compound 8] | 7.35 |
| Cc1cccc(-c2ccc(F)cc2-c2ccc3ncc(C(N)=O)n3c2)n1 [Compound 9] | 7.80 |
| Cc1cccc(-c2cc(F)ccc2-c2ccc3ncc(C(N)=O)n3c2)n1 [Compound 10] | 7.46 |
| Cc1cccc(-c2ccccc2-c2ccc3nccn3c2)n1 [Compound 11] | 6.84 |
| Cc1cccc(-c2ccccc2-c2ccc3ncc(C(=O)NO)n3c2)n1 [Compound 12] | 7.35 |
| Cc1cccc(-c2ccccc2-c2ccc3ncnc(N)c3c2)n1 [Compound 13] | 6.47 |
| Cc1cccc(-c2ccccc2-c2ccn3ncc(C(N)=O)c3c2)n1 [Compound 14] | 7.28 |
| Cc1cccc(-c2ccccc2-c2ccc3ncnn3c2)n1 [Compound 15] | 6.44 |
| Cc1cccc(-c2ccccc2-c2ccc3[nH]ncc3c2)n1 [Compound 16] | 5.89 |
| Cc1cccc(-c2ccccc2-c2ccc3nncn3c2)n1 [Compound 17] | < 5.00 |
| Cc1cccc(-c2ccccc2-c2ccc3nnc(C(N)=O)n3c2)n1 [Compound 18] | 5.32 |
| Cc1cccc(-c2ccccc2-c2ccc3c(cnn3C(N)=O)c2)n1 [Compound 19] | < 5.00 |

| SMILES | pIC50 |
| --- | --- |
| Cc1cccc(-c2ccccc2-c2ccc3ncc(C#N)n3c2)n1 [Compound 20] | 6.27 |
| Cc1cccc(-c2ccccc2-c2ccc3ncc(-c4nnn[nH]4)n3c2)n1 [Compound 21] | 7.14 |
| Cc1cccc(-c2ccccc2-c2ccc3ncc(N)n3c2)n1 [Compound 22] | 6.25 |
| Cc1cccc(-c2ccncc2-c2ccc3ncc(C(N)=O)n3c2)n1 [Compound 23] | 6.96 |
| COc1cccc(-c2ccccc2-c2ccc3ncc(C(N)=O)n3c2)n1 [Compound 24] | 7.35 |
| Cc1cccc(-c2ccc(C#N)cc2-c2ccc3ncc(C(N)=O)n3c2)n1 [Compound 25] | 7.14 |
| Cc1csc(-c2ccccc2-c2ccc3ncc(C(N)=O)n3c2)n1 [Compound 26] | 7.42 |
| Cc1nc(-c2ccccc2-c2ccc3ncc(C(N)=O)n3c2)cs1 [Compound 27] | 6.71 |
| Cc1cccc(-c2ccccc2-c2ccc3ncc(NC=O)n3c2)n1 [Compound 28] | 6.17 |
| COc1ccc(-c2cccc(C)n2)c(-c2ccc3ncc(C(N)=O)n3c2)c1 [Compound 29] | 7.42 |
| Cc1cccc(-c2ccccc2-c2ccc3nc(C)c(C(N)=O)n3c2)n1 [Compound 30] | 5.53 |
| Cc1cccc(-c2ccccc2-c2ccc3ncc(C)n3c2)n1 [Compound 31] | 6.90 |
| Cc1ccn(-c2ccccc2-c2ccc3ncc(C(N)=O)n3c2)n1 [Compound 32] | 6.47 |
| Cc1cccc(-c2ccccc2-c2ccc3occ(C(N)=O)c3c2)n1 [Compound 33] | 6.66 |
| Cc1cccc(-c2ccccc2-c2ccc3ncc(S(N)(=O)=O)n3c2)n1 [Compound 34] | 6.24 |
| Cc1cccc(-c2ccccc2-c2ccc3ncc(C(=N)N)n3c2)n1 [Compound 35] | 6.24 |
| Cc1cccc(-c2ccc(C(N)=O)cc2-c2ccc3ncc(C(N)=O)n3c2)n1 [Compound 37] | 7.20 |
| Cc1nc(-c2ccccc2-c2ccc3ncc(C(N)=O)n3c2)ccc1F [Compound 38] | 7.74 |
| Cc1nc(-c2ccccc2-c2ccc3ncc(C(N)=O)n3c2)ccc1Cl [Compound 39] | 6.71 |

| SMILES | pIC50 |
| --- | --- |
| Cc1ccc(F)c(-c2ccccc2-c2ccc3ncc(C(N)=O)n3c2)n1 [Compound 40] | 7.92 |
| Cc1ccnc(-c2ccccc2-c2ccc3ncc(C(N)=O)n3c2)n1 [Compound 42] | 6.84 |
| Cc1cncc(-c2ccccc2-c2ccc3ncc(C(N)=O)n3c2)n1 [Compound 44] | 6.49 |
| NC(=O)c1cnc2ccc(-c3ccccc3-c3cccc(C(F)(F)F)n3)cn12 [Compound 45] | 7.82 |
| Cn1ccc(-c2ccccc2-c2ccc3ncc(C(N)=O)n3c2)n1 [Compound 47] | 6.90 |
| Cc1nccc(-c2ccccc2-c2ccc3ncc(C(N)=O)n3c2)n1 [Compound 48] | 6.63 |
| Cc1cccc(-c2ccccc2-c2ccc3nc[nH]c(=O)c3c2)n1 [Compound 49] | 6.99 |
| Cc1cccc(-c2ccccc2-c2ccc3ncc(C(N)=O)nc3c2)n1 [Compound 52] | 6.38 |
| Cc1cccc(-c2cscc2-c2ccc3ncc(C(N)=O)n3c2)n1 [Compound 53] | 8.16 |
| Cc1cccc(-c2ccccc2-c2ccc3ncc(C(N)=O)n3n2)n1 [Compound 54] | 7.01 |
| Cc1cccc(-c2ccc(OCc3ccccc3F)cc2-c2ccc3ncc(C(N)=O)n3c2)n1 [Compound 55] | 7.89 |
| Cc1cccc(-c2cc3nccn3cc2-c2ccc3ncc(C(N)=O)n3c2)n1 [Compound 57] | 7.25 |
| Cc1cccc(-c2ccccc2-c2ccc3ncc(C(=O)NC4CC4)n3c2)n1 [Compound 58] | 7.34 |
| Cc1cccc(-c2ccc(Oc3ccccc3F)cc2-c2ccc3ncc(C(N)=O)n3c2)n1 [Compound 59] | 7.41 |
| Cc1cccc(-c2ccccc2-c2ccc3ncc(C(=O)NCCN4CCOCC4)n3c2)n1 [Compound 60] | 7.19 |
| Cc1cccc(-c2ccccc2-c2ccc3ncc(C(=O)NC4CCOCC4)n3c2)n1 [Compound 61] | 6.94 |
| Cc1coc(-c2ccccc2-c2ccc3ncc(C(N)=O)n3c2)n1 [Compound 63] | 7.13 |
| Cc1cccc(-c2ccccc2-c2ccnc3ccc(C(N)=O)cc23)n1 [Compound C-1, reference compound] | < 5.00 |
